# Results: patent US20160022684A1, “BET INHIBITOR AND BRUTON'S TYROSINE KINASE INHIBITOR COMBINATIONS” (Pharmacyclics LLC, priority 2014, published 2016)
# How the values were obtained:
# [1] = system: YAC-1 (target cells); experiment: NK cell cytotoxicity of splenocytes from treated mice (A20 model); type: in vivo; conditions: combination of JQ1 with ibrutinib, splenocytes after 14 days of treatment, co-cultured with YAC-1 for 4 hours
# Experimental: To determine the drug effect on NK cell cytotoxicity, splenocytes (effector cells) were harvested from mice after 14 days of treatment. The splenocytes were co-cultured with YAC-1 (target cells) for 4 hours. The percentage of target cell death (PI-positive cells) was analyzed by flow cytometry.
# [2] = system: U-2932; experiment: Combined drug treatment cell viability (CellTiter-Glo), ibrutinib with BET inhibitors, U-2932; type: cell-based; conditions: U2932, JQ1 20 nM, 3 days
# How it was run: (§1)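 Viability read by CellTiter-Glo luminescence at room temperature; drug interaction expressed as combination index (CI).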
# [3] = system: TMD8; experiment: Combined drug treatment cell viability (CellTiter-Glo), ibrutinib with BET inhibitors, TMD8; type: cell-based; conditions: JQ1 20 nM, 3 days
# How it was run: as §1
# [4] = system: OCI-LY3; experiment: Combined drug treatment cell viability (CellTiter-Glo), ibrutinib with BET inhibitors, OCI-LY3; type: cell-based; conditions: OCI-LY-3, JQ1 1 uM, 3 days
# How it was run: as §1
# [5] = system: OCI-LY10; experiment: Combined drug treatment cell viability (CellTiter-Glo), ibrutinib with BET inhibitors, OCI-LY10; type: cell-based; conditions: OCI-LY-10, JQ1 1 uM, 3 days
# How it was run: as §1
# [6] = system: SU-DHL-2; experiment: Combined drug treatment cell viability (CellTiter-Glo), ibrutinib with BET inhibitors, SU-DHL-2; type: cell-based; conditions: JQ1 100 nM, 3 days
# How it was run: as §1
# [7] = ibrutinib 0 nM (BET inhibitor alone): I-BET151 5 uM, OTX015 1 uM
# [8] = ibrutinib 0.0256 nM with I-BET151 5 uM, OTX015 1 uM or medium alone (row)
# [9] = ibrutinib 0.64 nM with I-BET151 5 uM, OTX015 1 uM or medium alone (row)
# [10] = ibrutinib 3.2 nM with I-BET151 5 uM, OTX015 1 uM or medium alone (row)
# [11] = ibrutinib 16 nM with I-BET151 5 uM, OTX015 1 uM or medium alone (row)
# [12] = ibrutinib 80 nM with I-BET151 5 uM, OTX015 1 uM or medium alone (row)
# [13] = ibrutinib 400 nM with I-BET151 5 uM, OTX015 1 uM or medium alone (row)
# [14] = ibrutinib 2000 nM with I-BET151 5 uM, OTX015 1 uM or medium alone (row)
# [15] = ibrutinib 10000 nM with I-BET151 5 uM, OTX015 1 uM or medium alone (row)
# [16] = ibrutinib […] with I-BET151 5 uM, OTX015 1 uM or medium alone (row)
structure (smiles),measurement,setting,value
Cc1sc2c(c1C)C(c1ccc(Cl)cc1)=N[C@@H](CC(=O)OC(C)(C)C)c1nnc(C)n1-2 [JQ1],"NK cytotoxicity (percentage of target cell death, PI-positive cells)",[1],enhanced NK cytotoxicity
same,luminescent signals,"[2]; ibrutinib 0 nM (BET inhibitor alone): I-BET151 200 nM, OTX015 50 nM (Table 2)",55050.2
same,luminescent signals,"[2]; ibrutinib 0.0256 nM with I-BET151 200 nM, OTX015 50 nM (Table 2) or medium alone (row)",52636.54
same,luminescent signals,"[2]; ibrutinib 0.64 nM with I-BET151 200 nM, OTX015 50 nM (Table 2) or medium alone (row)",46610.32
same,luminescent signals,"[2]; ibrutinib 3.2 nM with I-BET151 200 nM, OTX015 50 nM (Table 2) or medium alone (row)",47334.95
same,luminescent signals,"[2]; ibrutinib 16 nM with I-BET151 200 nM, OTX015 50 nM (Table 2) or medium alone (row)",46417.97
same,luminescent signals,"[2]; ibrutinib 80 nM with I-BET151 200 nM, OTX015 50 nM (Table 2) or medium alone (row)",49232.14
same,luminescent signals,"[2]; ibrutinib 400 nM with I-BET151 200 nM, OTX015 50 nM (Table 2) or medium alone (row)",44892.31
same,luminescent signals,"[2]; ibrutinib 2000 nM with I-BET151 200 nM, OTX015 50 nM (Table 2) or medium alone (row)",44099.18
same,luminescent signals,"[2]; ibrutinib 10000 nM with I-BET151 200 nM, OTX015 50 nM (Table 2) or medium alone (row)",33551.32
same,luminescent signals,"[2]; ibrutinib […] with I-BET151 200 nM, OTX015 50 nM (Table 2) or medium alone (row)",54454.69
same,luminescent signals,"[3]; ibrutinib 0 nM (BET inhibitor alone): I-BET151 200 nM, OTX015 100 nM",59694.27
same,luminescent signals,"[3]; ibrutinib 0.0256 nM with I-BET151 200 nM, OTX015 100 nM or medium alone (row)",18249.87
same,luminescent signals,"[3]; ibrutinib 0.64 nM with I-BET151 200 nM, OTX015 100 nM or medium alone (row)",16842.39
same,luminescent signals,"[3]; ibrutinib 3.2 nM with I-BET151 200 nM, OTX015 100 nM or medium alone (row)",16468.11
same,luminescent signals,"[3]; ibrutinib 16 nM with I-BET151 200 nM, OTX015 100 nM or medium alone (row)",16312.6
same,luminescent signals,"[3]; ibrutinib 80 nM with I-BET151 200 nM, OTX015 100 nM or medium alone (row)",15297.84
same,luminescent signals,"[3]; ibrutinib 400 nM with I-BET151 200 nM, OTX015 100 nM or medium alone (row)",15282.03
same,luminescent signals,"[3]; ibrutinib 2000 nM with I-BET151 200 nM, OTX015 100 nM or medium alone (row)",15571.96
same,luminescent signals,"[3]; ibrutinib 10000 nM with I-BET151 200 nM, OTX015 100 nM or medium alone (row)",9818.137
same,luminescent signals,"[3]; ibrutinib […] with I-BET151 200 nM, OTX015 100 nM or medium alone (row)",18911.45
same,luminescent signals,[4]; [7],20530.28
same,luminescent signals,[4]; [8],21973.49
same,luminescent signals,[4]; [9],23078.2
same,luminescent signals,[4]; [10],22419.57
same,luminescent signals,[4]; [11],21821.3
same,luminescent signals,[4]; [12],21944.63
same,luminescent signals,[4]; [13],22621.62
same,luminescent signals,[4]; [14],24841.54
same,luminescent signals,[4]; [15],21414.57
same,luminescent signals,[4]; [16],22582.26
same,luminescent signals,[5]; [7],41458.59
same,luminescent signals,[5]; [8],45492.43
same,luminescent signals,[5]; [9],52166.4
same,luminescent signals,[5]; [10],39783.52
same,luminescent signals,[5]; [11],26164.72
same,luminescent signals,[5]; [12],24844.65
same,luminescent signals,[5]; [13],24502.8
same,luminescent signals,[5]; [14],24579.06
same,luminescent signals,[5]; [15],25346.91
same,luminescent signals,[5]; [16],47932.71
same,luminescent signals,"[6]; ibrutinib 0 nM (BET inhibitor alone): I-BET151 2 uM, OTX015 1 uM (Table 2)",17739.9
same,luminescent signals,"[6]; ibrutinib 0.0256 nM with I-BET151 2 uM, OTX015 1 uM (Table 2) or medium alone (row)",22662.83
same,luminescent signals,"[6]; ibrutinib 0.64 nM with I-BET151 2 uM, OTX015 1 uM (Table 2) or medium alone (row)",19308.19
same,luminescent signals,"[6]; ibrutinib 3.2 nM with I-BET151 2 uM, OTX015 1 uM (Table 2) or medium alone (row)",25589.27
same,luminescent signals,"[6]; ibrutinib 16 nM with I-BET151 2 uM, OTX015 1 uM (Table 2) or medium alone (row)",20485.07
same,luminescent signals,"[6]; ibrutinib 80 nM with I-BET151 2 uM, OTX015 1 uM (Table 2) or medium alone (row)",19823.08
same,luminescent signals,"[6]; ibrutinib 400 nM with I-BET151 2 uM, OTX015 1 uM (Table 2) or medium alone (row)",23679.47
same,luminescent signals,"[6]; ibrutinib 2000 nM with I-BET151 2 uM, OTX015 1 uM (Table 2) or medium alone (row)",29411.5
same,luminescent signals,"[6]; ibrutinib 10000 nM with I-BET151 2 uM, OTX015 1 uM (Table 2) or medium alone (row)",3706.648
same,luminescent signals,"[6]; ibrutinib […] with I-BET151 2 uM, OTX015 1 uM (Table 2) or medium alone (row)",19174.22
